Reference: patent publication US9920030B2 (priority 2006, dated 2018)
Like-named read-outs stand apart in the source and are kept apart here.

Key:
Assay type in all cases: in vivo
[1] = tested on: Phytophthora infestans (the causal agent of tomato late blight); assay: whole plant or invertebrate; details: for pest or weed control at 40 ppm: Phytophthora infestans, 144 h, read-out: Percent Disease Control, Test B
[2] = tested on: Plasmopara vilicola (the causal agent of grape downy mildew); assay: Test A: grape downy mildew, test suspension sprayed on grape seedlings after inoculation, visual disease rating; details: for pest or weed control at 40 ppm: Plasmopara, 144 h, read-out: Percent Disease Control, Test A
In short: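 Compounds dissolved in acetone (3% of final volume), suspended in 50/50 acetone/water with 250 ppm Trem 014; 200 ppm to run-off equals 500 g/ha. Seedlings inoculated, held saturated at 20 °C 24 h, then sprayed; 5 days at 20 °C, 24 h saturated, then visual rating, 0–100% control versus untreated.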

[3] = tested on: Phytophthora infestans (the causal agent of tomato late blight); assay: whole plant or invertebrate; details: for pest or weed control at 40 ppm: Phytophthora infestans, 96 h, read-out: Percent Disease Control, Test C
[4] = compounds without asterisk (application rate not given), 100 = 100% disease control, 0 = no control relative to the controls

Compound	Percent Disease Control, Test B [1, 4] [%]	Percent Disease Control, Test A [2, 4] [%]	Percent Disease Control, Test C [3, 4] [%]	Percent Disease Control, Test B ([1]; * tested at 40 ppm) [%]	Percent Disease Control, Test A ([2]; * tested at 40 ppm) [%]	Percent Disease Control, Test C ([3]; * tested at 40 ppm) [%]	also measured
Cc1cc(C(F)(F)F)nn1CC(=O)N1CCC(c2nc(C3=NOC(C4(C)CO4)C3)cs2)CC1 (stereo not drawn) [Compound 200]	100	80	90				
Cc1ncsc1C1CC(c2csc(C3CCN(C(=O)Cn4nc(C(F)(F)F)cc4C)CC3)n2)=NO1 (stereo not drawn) [Compound 201]				100	99	99	
Cc1cc(C(F)(F)F)nn1CC(=O)N1CCC(c2nc(C3=NOC4c5ccccc5S(=O)(=O)C34)cs2)CC1 (stereo not drawn) [Compound 202]	100	95	98				
Cc1cc(C(F)(F)F)nn1CC(=O)N1CCC(c2nc(-c3ccon3)cs2)CC1 [Compound 203]				100	99	92	
Cc1cc(C(F)(F)F)nn1CC(=O)N1CCC(c2nc(C3=NOC(Oc4ccccc4)C3)cs2)CC1 (stereo not drawn) [Compound 204]				100	99	99	
Cc1ccccc1C1(C)CC(c2csc(C3CCN(C(=O)Cn4nc(C(F)(F)F)cc4C)CC3)n2)=NO1 (stereo not drawn) [Compound 205]				100	99	99	
COc1cccc(OC)c1C1CC(c2csc(C3CCN(C(=O)Cn4nc(C(F)(F)F)cc4C)CC3)n2)=NO1 (stereo not drawn) [Compound 206]				100	99	99	
Cc1cc(C(F)(F)F)nn1CC(=O)N1CCC(c2nc(CN3C(=O)CCC3=O)cs2)CC1 [Compound 207]	83	40	0				
Cc1cc(C(F)(F)F)nn1CC(=O)N1CCC(c2nc(CN3C(=O)OC(C)(C)C3=O)cs2)CC1 [Compound 208]	64	79	0				
Cc1cc(C(F)(F)F)nn1CC(=O)N1CCC(c2nc(C3=NOC4(c5ccccc5)CCCCC34)cs2)CC1 (stereo not drawn) [Compound 209]				100	99	90	
Cc1cc(C(F)(F)F)nn1CC(=O)N1CCC(c2nc(-c3cc(-c4ccccc4C(=O)O)on3)cs2)CC1 [Compound 210]	100	91	83				
Cc1cc(C(F)(F)F)nn1CC(=O)N1CCC(c2nc(C3=NOC(OC(C)(C)C)C3)cs2)CC1 (stereo not drawn) [Compound 211]				100	100	99	
Cc1cc(C(F)(F)F)nn1CC(=O)N1CCC(c2nc(C3=NOC4(CCN(c5ccccc5)CC4)C3)cs2)CC1 [Compound 212]				100	98	99	
Cc1cc(C(F)(F)F)nn1CC(=O)N1CCC(c2nc(C3=NOC(N4CCOC4=O)C3)cs2)CC1 (stereo not drawn) [Compound 213]				100	94	98	
Cc1cc(C(F)(F)F)nn1CC(=O)N1CCC(c2nc(C3=NO[C@@H](c4c(F)cccc4F)C3)cs2)CC1 [Compound 214, 1-[4-[4-[(5R)-5-(2,6-difluorophenyl)-4,5-dihydro-3-isoxazolyl]-2-thiazolyl]-1-piperidinyl]-2-[5-methyl-3-(trifluoromethyl)-1H-pyrazol-1-yl]ethanone]							pest or weed control at 40 ppm [1]: 100%; pest or weed control at 40 ppm ([2]; * tested at 40 ppm): 100%; pest or weed control at 40 ppm [3]: 99%
Cc1cc(C(F)(F)F)nn1CC(=O)N1CCC(c2nc(C3=NOC(N4C(=O)CCC4=O)C3)cs2)CC1 (stereo not drawn) [Compound 215]				100	99	99	

Compound	Percent Disease Control, Test B [1, 4] [%]	Percent Disease Control, Test A [2, 4] [%]	Percent Disease Control, Test C [3, 4] [%]	Percent Disease Control, Test B ([1]; * tested at 40 ppm) [%]	Percent Disease Control, Test A ([2]; * tested at 40 ppm) [%]	Percent Disease Control, Test C ([3]; * tested at 40 ppm) [%]	also measured
Cc1cc(C(F)(F)F)nn1CC(=O)N1CCC(c2nc(C3=NOC(NC(=O)c4ccccc4C(=O)[O-])C3)cs2)CC1.[Na+] (stereo not drawn) [Compound 216]				100	100	99	
Cc1cc(C(F)(F)F)nn1CC(=O)N1CC=C(c2nc(C3=NOC(c4ccccc4)C3)cs2)CC1 (stereo not drawn) [Compound 217, 1-[4-[4-(4,5-dihydro-5-phenyl-3-isoxazolyl)-2-thiazolyl]-3,6-dihydro-1(2H)-pyridinyl]-2-[5-methyl-3-(trifluoromethyl)-1H-pyrazol-1 yl]ethanone]							pest or weed control at 40 ppm [1]: 100%; pest or weed control at 40 ppm ([2]; * tested at 40 ppm): 95%; pest or weed control at 40 ppm [3]: 99%
Cc1cc(C(F)(F)F)nn1CC(=O)N1CCC(c2nc(C3=NOC4(C)C(=O)c5ccccc5C(O)=C34)cs2)CC1 (stereo not drawn) [Compound 218]				63	73	47	
Cc1cc(C(F)(F)F)nn1CC(=O)N1CCC(c2nc(C3=NOC(c4nc5ccccc5n4C)C3)cs2)CC1 (stereo not drawn) [Compound 219]	100	100	99				
COC(=O)c1ccccc1C1CC(c2csc(C3CCN(C(=O)Cn4nc(C(F)(F)F)cc4C)CC3)n2)=NO1 (stereo not drawn) [Compound 221]	100	100	99				
Cc1cc(C(F)(F)F)nn1CC(=O)N1CCC(c2nc(C3=NOC(N4C(=O)C(=O)c5ccccc54)C3)cs2)CC1 (stereo not drawn) [Compound 222]	100	100	100				
Cc1cc(C(F)(F)F)nn1CC(=O)N1CCC(c2nc(C3=NOC(N4C(=O)OC(C)(C)C4=O)C3)cs2)CC1 (stereo not drawn) [Compound 223]	100	100	100				
C=CN1C(=O)C2ON=C(c3csc(C4CCN(C(=O)Cn5nc(C(F)(F)F)cc5C)CC4)n3)C2C1=O (stereo not drawn) [Compound 224]	63	0	0				
Cc1cc(C(F)(F)F)nn1CC(=O)N1CCC(c2nc(C3=NOC(C(=O)N4CCOCC4)C3)cs2)CC1 (stereo not drawn) [Compound 226]	100	83	99				
CCC(=O)N1N=C(c2csc(C3CCN(C(=O)Cn4nc(C(F)(F)F)cc4C)CC3)n2)OC12CCCc1ccccc12 (stereo not drawn) [Compound 227]	100	100	100				
Cc1cc(C(F)(F)F)nn1CC(=O)N1CCC(c2nc(C3=NN(C(=O)C(C)C)C4(CCCc5ccccc54)O3)cs2)CC1 (stereo not drawn) [Compound 228]	100	99	100				
O=C(Cn1nc(C(F)(F)F)cc1Cl)N1CCC(c2nc(C3=NO[C@]4(CCc5ccccc54)C3)cs2)CC1 [Compound 232, 2-[5-chloro-3-(trifluoromethyl)-1H-pyrazol-1-yl]-1-[4-[4-[(1R)-2,3-dihydrospiro[1-indene-1,5′(4′H)-isoxazol]-3′-yl]-2-thiazolyl]-1-piperidinyl]ethanone]							Percent Disease Control, Test B ([1]; ** tested at l0 ppm): 100%; Percent Disease Control, Test A ([2]; ** tested at l0 ppm): 100%; Percent Disease Control, Test C ([3]; ** tested at l0 ppm): 100%
Cc1cc(C(F)(F)F)nn1CC(=O)N1CCC(c2nc(C3=NOC(N4Cc5ccccc5C4=O)C3)cs2)CC1 (stereo not drawn) [Compound 233]				100	100	100	
Cc1cc(C(F)(F)F)nn1CC(=O)N1CCC(c2nc(C3=NOC(N4C(=O)CN(C)C4=O)C3)cs2)CC1 (stereo not drawn) [Compound 234]				100	99	100	
Cc1cc(C(F)(F)F)nn1CC(=O)N1CCC(c2nc(C3=NOC(N4C(=O)N(C)C(C)(C)C4=O)C3)cs2)CC1 (stereo not drawn) [Compound 235]				100	99	100	
Cc1cc(C(F)(F)F)nn1CC(=O)N1CCC(c2nc(C3=NOC(N4C(=O)c5ccccc5S4(=O)=O)C3)cs2)CC1 (stereo not drawn) [Compound 236]				100	100	100	
